Measurements published in patent US20110110916A1, “METHODS FOR TREATING AND/OR PREVENTING CARDIOMYOPATHIES BY ERK OR JNK INHIBITION” (priority 2008, published 2011).

Tests used:
Format in all cases: in vivo, mouse
[1] = test system: ERK1/2; assay: Immunoblot of phosphorylated ERK1/2 versus total ERK1/2 in hearts of treated mice
Protocol: Hearts were excised from mice at 16-weeks of age and were homogenized in RIPA extraction buffer (Cell Signalling) containing protease inhibitors (25 […]). Protein samples were subjected to SDS-PAGE, transferred to nitrocellulose membranes and blotted with primary antibodies against ERK1/2 (Santa-Cruz), phosphorylated ERK1/2 (Cell Signaling), JNK (Santa-Cruz), natriuretic peptide precursor A (Santa-Cruz), phosphorylated JNK (Cell Signaling), and Gapdh (Ambion). Secondary antibodies were HRP-conjugated (Amersham). Recognized proteins were visualized by enhanced chemiluminescence (ECL, Amersham). The signal generated using an antibody against Gapdh was used as internal controls to normalize the amounts of protein between immunoblots.
We assessed the efficacy of the chemical entities in inhibiting their targets in the heart by immunoblot using anti-total ERK1/2 (Santa Cruz) and anti-pERK1/2 (Cell Signaling) antibodies.
Proteins were loaded on 10% SDS gels and electrotransferred on a […] pore size nitrocellulose membrane (Invitrogen). We used antibodies directed against phosphorylated ERK1/2 (Cell Signaling, 1:1,000), total ERK1/2 (Santa Cruz, 1:2,000), phosphorylated JNK (Cell Signaling, 1:1,000) and total JNK (Santa Cruz, 1:200). The secondary antibodies were coupled to horseradish-peroxydase (Amersham). Recognized proteins were visualized by enhanced chemiluminescence (SuperSignal® West Pico chemiluminescent substrate, Thermo Scientific).

[2] = test system: hearts from Lmna^H222P/H222P mice; assay: Quantitative real-time RT-PCR of mRNAs in hearts of treated mice; details: for expression of Colla1, Colla2 and Fn1 / expression of Mlc-2a, NppA and NppB mRNAs: 20 weeks of age, 3 mg/kg/day from 16 to 20 weeks
Excerpt: Total RNA was extracted using the Rneasy isolation kit (Qiagen) as previously described (96). cDNA was synthesized as previously described (96) using Omniscript Reverse Transcriptase (Qiagen) on total cellular RNA. For each replicate in each experiment, RNA from tissue samples of different animals was used. Primers were designed that correspond to mouse RNA sequences using Primer3 (http://frodo.wi.mit.edu/cgi-biniprimer3/primer3_www.cgi). The real-time RT-PCR reaction contained iQ SYBR green super mix (Bio-Rad), 200 nM of each primer and 0.2 μl of template in a 25 μl reaction volume. Amplification was carried out using appropriate primers and the MyiQ Single-Color Real-Time PCR Detection System (Bio-Rad) with an initial denaturation at 95° C. for 2 min followed by 50 cycles at 95° C. for 30 s and 62° C. for 30 s. Relative levels of mRNA expression were calculated using the CT method (67). Individual expression values were normalized by comparison with Gapdh mRNA.
Real-time reverse transcription-PCR (RT-PCR) was used to quantify tissue RNA levels. Total RNA was extracted from cardiac ventricles of mice using the Rneasy isolation kit (Qiagen) as previously described. cDNA was synthesized using Superscript first strand synthesis system according to the manufacturer's instructions (Invitrogen) on total RNA. For each replicate in each experiment, RNA from tissue samples of different animals was used. Primers were designed correspond to mouse RNA sequences using Primer3 (http://frodo.wi.mit.edu/cgi-bin/primer3/primer3_www.cgi) for Nppa (forward 5′-[…]-3′ [SEQ ID NO: 4], reverse 5′-[…]-3′ [SEQ ID NO: 5]), Nppb (forward 5′-[…]-3′ [SEQ ID NO: 6], reverse 5′-[…]-3′ [SEQ ID NO: 7]), Mlc-2a (forward 5′-[…]-3′ [SEQ ID NO: 8], reverse 5′-[…]-3′ [SEQ ID NO: 9]), Colla1 (forward 5′-[…]-3′ [SEQ ID NO: 10], reverse 5′-[…]-3′ [SEQ ID NO: 11]), Colla2 (forward 5′-[…]-3′ [SEQ ID NO: 12], reverse 5′-[…]-3′ [SEQ ID NO: 13]) and Fn1 (forward 5′-[…]-3′ [SEQ ID NO: 14], reverse 5′-[…]-3′ [SEQ ID NO: 15]). The real-time RT-PCR reaction contained iQ SYBR green super mix (Bio-Rad), 200 nM of each primer, and 0.2 μl of template in a 25 μl reaction volume. Amplification was carried out using the MyiQ Single-Color Real-Time PCR Detection System (Bio-Rad) with an initial denaturation at 95° C. for […] followed by 50 cycles at 95° C. for 30 s and 62° C. for 30 s. Relative levels of mRNA expression were calculated using the ΔΔCT method (2). Individual expression values were normalized by comparison with Gapdh mRNA (forward 5′-[…]-3′ [SEQ ID NO: 16], reverse 5′-[…]-3′ [SEQ ID NO: 17]).

[3] = test system: Lmna^H222P/H222P mice; assay: Pilot study: echocardiography at 24 weeks of age, treatment from 19 to 24 weeks; details: 3 mg/kg/day from 19 to 24 weeks, pilot study n=3
Protocol: SP600125, an anthrapyrazolone inhibitor of JNK, and PD98059, a 2′-amino-3′-methoxyflavone MAPK/ERK kinase (MEK) ½ inhibitor, (Calbiochem) were dissolved in dimethyl sulfoxide (DMSO) (Sigma) at a concentration of 1 mg/ml and were delivered to a dose of 3 mg/kg/day for 5 days a week. The placebo control consisted of DMSO alone and was delivered in the same volume. Placebo and inhibitors were administered by intraperitoneal injection using a 27⅝-gauge syringe. Treatments were started when mice were 16 weeks of age and continued until 20 weeks of age or when the mice were 19 weeks and continued until 24 weeks of age.
At 20 weeks or 24 weeks of age, mice were anesthetized with 1.5% isoflurane in O2 and placed on a heating pad (37° C.). Cardiac function was assessed by echocardiography with a Visualsonics Vevo 770 ultrasound with a 30 MHz transducer applied to the chest wall. Cardiac ventricular dimensions and fractional shortening (FS) were measured in 2D mode and M-mode three times in a modified short axis view for the number of animals indicated. A “blinded” echocardiographer (J.S.), unaware of the genotype or treatment, performed the examinations.
In a pilot study, we assessed treatment of Lmna^H222P/H222P mice with PD98059 and SP600125 at a more advanced stage of disease and for a longer time. […]

[4] = 3 mg/kg/day from 16 to 20 weeks of age
[5] = treated 8 to 16 weeks of age, 3 mg/kg/day i.p.
[6] = pilot study, 24 weeks, treated from 19 weeks

| Structure (SMILES) | phosphorylation of ERK1/2 in hearts [1, 4] | phosphorylation of ERK1/2 in hearts [1, 5] | expression of Colla1, Colla2 and Fn1 [2] | expression of Mlc-2a, NppA and NppB mRNAs [2] | cardiac expression of Mlc-2a, NppA, Colla1 and Colla2 mRNAs [2, 6] | LV dilatation and FS compared to DMSO-treated mice [3] | phosphorylation of ERK1/2 in hearts ([1]; pilot study, 24 week-old mice treated from 19 weeks) | expression of Elk1, Elk4, Atf2 and Atf4 ([2]; hearts at 16 weeks, treated 8 to 16 weeks) | cardiac expression of NppB mRNA [2, 6] |
| --- | --- | --- | --- | --- | --- | --- | --- | --- | --- |
| O=C1c2ccccc2-c2n[nH]c3cccc1c23 [SP600125, anthra[1,9-cd]pyrazol-6(2H)-one] | not significantly inhibited | did not block | significantly lowered | significantly decreased | significantly reduced | trend toward decreased LV dilatation and increased FS |  |  |  |
| COc1cccc(-c2cc(=O)c3ccccc3o2)c1N [PD98059, 2-(2-amino-3-methoxyphenyl)-4H-1-benzopyran-4-one] | partially blocked | inhibited | significantly lowered | significantly decreased | significantly reduced | decreased LV dilatation and increased FS | partially blocked | decreased expression | significantly reduced |
